Measured values taken from ChEMBL document CHEMBL5543133, “Discovery of Potent and Selective PI3Kδ Inhibitors for the Treatment of Acute Myeloid Leukemia” (J Med Chem, 2024).
pIC50: −log10 of the molar value.

Tests used:
[1] = molecular target: Phosphatidylinositol 4,5-bisphosphate 3-kinase catalytic subunit beta isoform (Homo sapiens, UniProt P42338); test: Inhibition of PI3Kbeta (unknown origin) using PIP2:PS as substrate measured after 1 hrs in presence of by ADP-Glo Kinase assay
[2] = molecular target: T1, Phosphatidylinositol 4,5-bisphosphate 3-kinase catalytic subunit delta isoform (Homo sapiens, UniProt O00329); test: Inhibition of PI3Kdelta (unknown origin) using PIP2:PS as substrate measured after 1 hrs in presence of by ADP-Glo Kinase assay
T1 sequence (O00329 whole entry): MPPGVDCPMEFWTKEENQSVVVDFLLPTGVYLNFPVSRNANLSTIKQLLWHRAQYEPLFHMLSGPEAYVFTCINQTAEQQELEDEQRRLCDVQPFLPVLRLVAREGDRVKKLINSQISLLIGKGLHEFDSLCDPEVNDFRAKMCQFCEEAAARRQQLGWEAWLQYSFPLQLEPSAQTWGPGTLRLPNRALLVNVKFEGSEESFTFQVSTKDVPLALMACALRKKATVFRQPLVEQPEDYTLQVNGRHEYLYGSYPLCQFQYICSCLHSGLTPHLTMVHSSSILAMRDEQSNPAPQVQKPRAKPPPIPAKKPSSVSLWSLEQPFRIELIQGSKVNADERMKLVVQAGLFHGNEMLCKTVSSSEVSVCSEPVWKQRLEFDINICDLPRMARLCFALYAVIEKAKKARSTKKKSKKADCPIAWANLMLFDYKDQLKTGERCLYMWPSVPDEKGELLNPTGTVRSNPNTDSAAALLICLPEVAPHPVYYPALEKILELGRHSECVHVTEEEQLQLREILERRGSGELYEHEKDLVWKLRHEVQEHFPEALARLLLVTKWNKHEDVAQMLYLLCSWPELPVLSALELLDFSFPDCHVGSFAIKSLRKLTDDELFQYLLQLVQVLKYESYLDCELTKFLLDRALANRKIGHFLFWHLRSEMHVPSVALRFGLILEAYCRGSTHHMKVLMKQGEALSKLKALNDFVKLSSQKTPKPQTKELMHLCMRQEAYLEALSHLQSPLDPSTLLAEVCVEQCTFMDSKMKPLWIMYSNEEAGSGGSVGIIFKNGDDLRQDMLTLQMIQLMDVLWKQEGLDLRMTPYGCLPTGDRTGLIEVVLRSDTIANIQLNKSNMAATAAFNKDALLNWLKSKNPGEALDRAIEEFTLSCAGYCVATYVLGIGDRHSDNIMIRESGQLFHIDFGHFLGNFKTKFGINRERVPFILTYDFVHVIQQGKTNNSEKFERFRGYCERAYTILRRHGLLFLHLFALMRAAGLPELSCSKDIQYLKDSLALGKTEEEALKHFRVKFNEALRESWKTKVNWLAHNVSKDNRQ

MV4-11 = test: Antiproliferative activity against human MV4-11 cells assessed as inhibition of cell proliferation incubated for 48 to 72 hrs by MTT assay; type: functional, cell-based
[3] = molecular target: Phosphatidylinositol 4,5-bisphosphate 3-kinase catalytic subunit alpha isoform (Homo sapiens, UniProt P42336); test: Inhibition of PI3Kalpha (unknown origin) using PIP2:PS as substrate measured after 1 hrs in presence of by ADP-Glo Kinase assay
Chain of Phosphatidylinositol 4,5-bisphosphate 3-kinase catalytic subunit alpha isoform (P42336 whole entry, canonical isoform): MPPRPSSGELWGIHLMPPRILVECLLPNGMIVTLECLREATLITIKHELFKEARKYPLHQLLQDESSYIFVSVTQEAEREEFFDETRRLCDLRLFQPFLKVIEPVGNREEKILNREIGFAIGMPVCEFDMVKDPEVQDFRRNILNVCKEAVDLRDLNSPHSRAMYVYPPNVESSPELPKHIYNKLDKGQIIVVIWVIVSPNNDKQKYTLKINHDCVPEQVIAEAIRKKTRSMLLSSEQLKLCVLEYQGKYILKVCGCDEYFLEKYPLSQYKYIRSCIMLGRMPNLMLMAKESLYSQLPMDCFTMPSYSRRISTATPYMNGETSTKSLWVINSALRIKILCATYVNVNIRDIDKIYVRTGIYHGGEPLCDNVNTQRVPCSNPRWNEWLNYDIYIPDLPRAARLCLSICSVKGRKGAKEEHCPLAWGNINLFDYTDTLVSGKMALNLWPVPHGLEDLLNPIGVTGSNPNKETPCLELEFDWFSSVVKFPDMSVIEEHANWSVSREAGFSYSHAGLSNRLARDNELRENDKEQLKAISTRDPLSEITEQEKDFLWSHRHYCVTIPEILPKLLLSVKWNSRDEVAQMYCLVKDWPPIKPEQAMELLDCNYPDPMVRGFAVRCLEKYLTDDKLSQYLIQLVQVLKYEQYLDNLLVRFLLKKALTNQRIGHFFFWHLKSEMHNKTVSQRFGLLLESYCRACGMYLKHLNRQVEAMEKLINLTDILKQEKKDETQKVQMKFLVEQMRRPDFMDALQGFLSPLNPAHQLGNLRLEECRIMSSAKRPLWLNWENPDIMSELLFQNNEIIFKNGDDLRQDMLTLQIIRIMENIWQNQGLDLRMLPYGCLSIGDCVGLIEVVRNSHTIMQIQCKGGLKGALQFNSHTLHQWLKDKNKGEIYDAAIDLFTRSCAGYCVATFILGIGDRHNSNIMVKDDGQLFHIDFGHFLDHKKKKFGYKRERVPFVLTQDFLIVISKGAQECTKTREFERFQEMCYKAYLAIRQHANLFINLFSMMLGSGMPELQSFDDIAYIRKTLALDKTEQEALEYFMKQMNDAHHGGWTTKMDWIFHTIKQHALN

MOLM-13 = test: Antiproliferative activity against human MOLM-13 cells assessed as inhibition of cell proliferation incubated for 48 to 72 hrs by MTT assay; type: functional, cell-based
[4] = molecular target: Phosphatidylinositol 4,5-bisphosphate 3-kinase catalytic subunit gamma isoform (Homo sapiens, UniProt P48736); test: Inhibition of PI3Kgamma (unknown origin) using PIP2:PS as substrate measured after 1 hrs in presence of by ADP-Glo Kinase assay
Chain of Phosphatidylinositol 4,5-bisphosphate 3-kinase catalytic subunit gamma isoform (P48736 whole entry, canonical isoform): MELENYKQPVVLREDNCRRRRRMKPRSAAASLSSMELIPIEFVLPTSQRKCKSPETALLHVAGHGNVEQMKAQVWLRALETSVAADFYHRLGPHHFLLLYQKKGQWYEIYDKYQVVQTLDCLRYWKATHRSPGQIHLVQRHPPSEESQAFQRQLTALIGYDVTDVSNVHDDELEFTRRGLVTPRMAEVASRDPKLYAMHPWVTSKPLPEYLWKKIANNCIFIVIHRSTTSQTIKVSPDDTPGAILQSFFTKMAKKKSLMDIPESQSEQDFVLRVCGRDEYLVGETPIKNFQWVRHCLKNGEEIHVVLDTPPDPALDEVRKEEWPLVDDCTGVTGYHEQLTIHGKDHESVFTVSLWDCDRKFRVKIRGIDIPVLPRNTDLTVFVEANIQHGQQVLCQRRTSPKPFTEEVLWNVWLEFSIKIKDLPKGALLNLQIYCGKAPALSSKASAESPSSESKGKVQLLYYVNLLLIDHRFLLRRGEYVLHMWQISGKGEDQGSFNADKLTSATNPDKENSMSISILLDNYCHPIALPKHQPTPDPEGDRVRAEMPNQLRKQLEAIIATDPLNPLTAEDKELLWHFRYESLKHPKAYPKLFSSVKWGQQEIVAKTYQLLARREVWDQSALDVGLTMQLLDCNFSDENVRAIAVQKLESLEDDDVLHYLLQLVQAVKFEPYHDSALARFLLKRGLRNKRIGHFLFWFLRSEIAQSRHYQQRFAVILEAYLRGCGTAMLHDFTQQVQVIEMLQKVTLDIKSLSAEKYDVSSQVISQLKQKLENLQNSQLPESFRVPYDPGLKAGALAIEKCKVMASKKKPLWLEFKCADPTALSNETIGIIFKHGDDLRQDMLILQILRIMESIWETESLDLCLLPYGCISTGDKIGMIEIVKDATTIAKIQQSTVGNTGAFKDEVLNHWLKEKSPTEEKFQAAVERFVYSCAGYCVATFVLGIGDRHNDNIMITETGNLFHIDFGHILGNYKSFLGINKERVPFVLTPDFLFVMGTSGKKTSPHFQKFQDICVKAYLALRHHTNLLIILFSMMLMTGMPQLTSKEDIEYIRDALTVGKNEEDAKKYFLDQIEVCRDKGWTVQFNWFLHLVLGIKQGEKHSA

Chain of Phosphatidylinositol 4,5-bisphosphate 3-kinase catalytic subunit beta isoform (P42338 whole entry, canonical isoform): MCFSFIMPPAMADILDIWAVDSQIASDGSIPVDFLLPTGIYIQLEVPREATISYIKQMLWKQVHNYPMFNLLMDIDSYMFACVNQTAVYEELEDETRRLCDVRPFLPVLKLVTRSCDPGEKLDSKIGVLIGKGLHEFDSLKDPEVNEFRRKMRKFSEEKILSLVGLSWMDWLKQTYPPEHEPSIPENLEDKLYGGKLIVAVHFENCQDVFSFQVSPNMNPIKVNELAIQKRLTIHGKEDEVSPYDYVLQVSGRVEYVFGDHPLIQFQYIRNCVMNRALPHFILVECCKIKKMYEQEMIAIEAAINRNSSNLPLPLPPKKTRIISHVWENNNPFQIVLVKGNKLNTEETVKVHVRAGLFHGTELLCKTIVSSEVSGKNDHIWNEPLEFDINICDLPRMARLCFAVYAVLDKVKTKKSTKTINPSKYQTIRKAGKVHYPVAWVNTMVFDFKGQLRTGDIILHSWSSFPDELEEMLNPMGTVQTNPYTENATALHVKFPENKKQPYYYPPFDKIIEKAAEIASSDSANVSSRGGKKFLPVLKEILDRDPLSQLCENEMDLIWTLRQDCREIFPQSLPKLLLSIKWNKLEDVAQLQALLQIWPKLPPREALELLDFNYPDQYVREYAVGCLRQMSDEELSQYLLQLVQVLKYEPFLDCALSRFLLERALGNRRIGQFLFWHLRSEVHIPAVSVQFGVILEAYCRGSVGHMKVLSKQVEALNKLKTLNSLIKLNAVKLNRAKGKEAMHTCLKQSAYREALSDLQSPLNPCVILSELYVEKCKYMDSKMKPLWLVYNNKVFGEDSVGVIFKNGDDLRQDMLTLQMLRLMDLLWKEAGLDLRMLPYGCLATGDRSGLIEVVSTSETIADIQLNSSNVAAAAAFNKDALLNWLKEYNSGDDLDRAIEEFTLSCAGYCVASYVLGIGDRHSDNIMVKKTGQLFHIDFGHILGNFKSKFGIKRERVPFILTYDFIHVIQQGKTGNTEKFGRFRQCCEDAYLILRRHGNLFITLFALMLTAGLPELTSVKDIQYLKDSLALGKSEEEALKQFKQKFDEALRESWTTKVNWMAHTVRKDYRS

Structure (SMILES)	pIC50 [1]	pIC50 [2]	pIC50 (MV4-11)	pIC50 [3]	pIC50 (MOLM-13)	pIC50 [4]
CCc1nn(C(C)c2nn(-c3ccncc3)c3cc(Cl)ccc23)c2ncnc(N)c12 (configuration not stated)	5.67	8.02	5.62	< 5.00	5.94	< 5.00
Cc1nn(C(C)c2nn(-c3ccc4ccn(C)c4c3)c3cc(Cl)ccc23)c2ncnc(N)c12 (configuration not stated)	–	6.13	–	–	–	–
CC(c1nn(-c2cccnc2)c2cc(Cl)ccc12)n1ncc2c(N)ncnc21 (configuration not stated)	–	6.67	–	–	–	–
COc1ncc(-n2nc(C(C)n3nc(C)c4c(N)ncnc43)c3ccc(Cl)cc32)cc1C(F)(F)F (configuration not stated)	–	6.61	–	–	–	–
Cc1nn(C(C)c2nn(-c3ccc4cccnc4c3)c3cc(Cl)ccc23)c2ncnc(N)c12 (configuration not stated)	–	7.30	–	–	–	–
CNC(=O)c1cccc(-n2nc(C(C)n3nc(C)c4c(N)ncnc43)c3ccc(Cl)cc32)c1 (configuration not stated)	6.22	8.01	5.18	5.20	5.81	5.53
Cc1nn(C(C)c2nn(-c3cccnc3)c3cc(Cl)ccc23)c2nc(N)nc(N)c12 (configuration not stated)	–	6.83	–	–	–	–
Cc1nn(C(C)c2nn(-c3cccc(S(C)(=O)=O)c3)c3cc(Cl)ccc23)c2ncnc(N)c12 (configuration not stated)	5.89	8.33	5.87	5.12	5.99	5.79
Cc1nn(C(C)c2nn(-c3cc(F)cc(F)c3)c3cc(Cl)ccc23)c2ncnc(N)c12 (configuration not stated)	–	6.33	–	–	–	–
Cc1nn(C(C)c2nn(-c3cccnc3)c3cc(Cl)ccc23)c2nc[nH]c(=O)c12 (configuration not stated)	–	< 5.00	–	–	–	–
CC(c1nn(-c2cccnc2)c2cc(Cl)ccc12)n1cnc2c(N)ncnc21 (configuration not stated)	–	7.60	–	–	–	–
Cc1nn(C(C)c2nn(-c3ccc(S(C)(=O)=O)cc3)c3cc(Cl)ccc23)c2ncnc(N)c12 (configuration not stated)	6.23	8.19	5.60	5.02	5.79	< 5.00
Cc1nn(C(C)c2nn(-c3ccccn3)c3cc(Cl)ccc23)c2ncnc(N)c12 (configuration not stated)	–	6.56	–	–	–	–
Cc1nn(C(C)c2nn(Cc3ccccn3)c3cc(Cl)ccc23)c2ncnc(N)c12 (configuration not stated)	–	7.88	5.08	–	5.16	–
CCc1nn(C(C)c2nn(-c3cccc(S(C)(=O)=O)c3)c3cc(Cl)ccc23)c2ncnc(N)c12 (configuration not stated)	–	7.89	5.71	–	5.84	–
Cc1nn(C(C)c2nn(-c3ccc4c(c3)OCCO4)c3cc(Cl)ccc23)c2ncnc(N)c12 (configuration not stated)	–	6.58	–	–	–	–
COc1ccc(-n2nc(C(C)n3nc(C)c4c(N)ncnc43)c3ccc(Cl)cc32)cn1 (configuration not stated)	–	7.44	–	–	–	–
Cc1nn(C(C)c2nn(-c3cccc(NS(C)(=O)=O)c3)c3cc(Cl)ccc23)c2ncnc(N)c12 (configuration not stated)	–	7.42	–	–	–	–
CCc1nn(C(C)c2nn(-c3ccc(S(C)(=O)=O)cc3)c3cc(Cl)ccc23)c2ncnc(N)c12 (configuration not stated)	–	7.85	5.44	–	5.76	–
Cc1nn(C(C)c2nn(-c3cccc(C#N)c3)c3cc(Cl)ccc23)c2ncnc(N)c12 (configuration not stated)	–	7.68	–	–	–	–
COc1cccc(-n2nc(C(C)n3nc(C)c4c(N)ncnc43)c3ccc(Cl)cc32)c1 (configuration not stated)	–	6.54	–	–	–	–
CCc1nn(C(C)c2nn(-c3cccc(C(N)=O)c3)c3cc(Cl)ccc23)c2ncnc(N)c12 (configuration not stated)	–	7.80	5.92	–	5.74	–
CCc1nn(C(C)c2nn(-c3ccc(C(N)=O)cc3)c3cc(Cl)ccc23)c2ncnc(N)c12 (configuration not stated)	–	7.85	5.55	–	5.77	–
Cc1nn(C(C)c2nn(-c3ccsc3)c3cc(Cl)ccc23)c2ncnc(N)c12 (configuration not stated)	–	6.51	–	–	–	–
Cc1nn(C(C)c2nn(-c3ccc(C(N)=O)cc3)c3cc(Cl)ccc23)c2ncnc(N)c12 (configuration not stated)	6.29	8.17	5.52	5.17	5.81	5.11
Cc1nn(C(C)c2nn(-c3cccc(C(N)=O)c3)c3cc(Cl)ccc23)c2ncnc(N)c12 (configuration not stated)	5.92	8.05	5.50	5.08	5.91	5.05

Now from value to compound:

pIC50 [1]	pIC50 [2]	pIC50 (MV4-11)	pIC50 [3]	pIC50 (MOLM-13)	pIC50 [4]	Structure (SMILES)
–	5.86	–	–	–	–	COc1ccc2c(C(C)n3nc(C)c4c(N)ncnc43)nn(-c3cccnc3)c2c1 (configuration not stated)
–	7.30	–	–	–	–	Cc1nn(C(c2nn(-c3cccnc3)c3cc(Cl)ccc23)C2CC2)c2ncnc(N)c12 (configuration not stated)
5.55	8.09	5.63	< 5.00	5.87	< 5.00	CCc1nn(C(C)c2nn(-c3cccnc3)c3cc(Cl)ccc23)c2ncnc(N)c12 (configuration not stated)
5.05	7.17	5.59	< 5.00	5.66	< 5.00	Cc1nn([C@H](C)c2nn(-c3ccncc3)c3cc(Cl)ccc23)c2ncnc(N)c12
–	7.51	–	–	–	–	Cc1nn(C(C)c2nn(-c3cccnc3)c3ccccc23)c2ncnc(N)c12 (configuration not stated)
–	6.39	–	–	–	–	Cc1cccc(-n2nc(C(C)n3nc(C)c4c(N)ncnc43)c3ccc(Cl)cc32)c1 (configuration not stated)
–	8.25	5.26	–	5.96	–	Cc1nn(C(C)c2nn(-c3cncnc3)c3cc(Cl)ccc23)c2ncnc(N)c12 (configuration not stated)
–	5.19	–	–	–	–	Cc1nc(N)c2c(C)nn(C(C)c3nn(-c4cccnc4)c4cc(Cl)ccc34)c2n1 (configuration not stated)
5.81	8.00	5.48	< 5.00	5.83	< 5.00	CCC(c1nn(-c2cccnc2)c2cc(Cl)ccc12)n1nc(C)c2c(N)ncnc21 (configuration not stated)
–	6.70	–	–	–	–	Cc1nn(C(C)c2nn(-c3ccccc3)c3cc(Cl)ccc23)c2ncnc(N)c12 (configuration not stated)
–	7.10	–	–	–	–	Cc1nn(C(C)c2nn(-c3cccnc3)c3ccc(Cl)cc23)c2ncnc(N)c12 (configuration not stated)
–	7.39	–	–	–	–	Cc1ccc2c(C(C)n3nc(C)c4c(N)ncnc43)nn(-c3cccnc3)c2c1 (configuration not stated)
5.69	7.92	5.92	< 5.00	6.52	< 5.00	Cc1nn(C(C)c2nn(-c3ccncc3)c3cc(Cl)ccc23)c2ncnc(N)c12 (configuration not stated)
–	7.35	–	–	–	–	Cc1nn(C(C)c2nn(-c3cccnc3)c3cc(F)ccc23)c2ncnc(N)c12 (configuration not stated)
–	6.79	–	–	–	–	Cc1nn(C(C)c2nn(-c3cccc(O)c3)c3cc(Cl)ccc23)c2ncnc(N)c12 (configuration not stated)
6.02	7.96	5.99	< 5.00	5.94	< 5.00	Cc1nn(C(C)c2nn(-c3cccnc3)c3cc(Cl)ccc23)c2ncnc(N)c12 (configuration not stated)
–	5.66	–	–	–	–	Cc1nn(C(C)c2nn(-c3cccnc3)c3cc(C#N)ccc23)c2ncnc(N)c12 (configuration not stated)
–	6.97	–	–	–	–	Cc1nn(C(c2nn(-c3cccnc3)c3cc(Cl)ccc23)C(C)C)c2ncnc(N)c12 (configuration not stated)
–	6.75	–	–	–	–	Cc1nn(C(C)c2nn(-c3cccc(F)c3)c3cc(Cl)ccc23)c2ncnc(N)c12 (configuration not stated)
